Source: patent publication US20080188449A1, “Treatment of Conditions Caused By Calcium Abnormalities” (priority 2004, published 2008)

How the values were obtained:
HeLa cells = experiment: Viability of parvalbumin-GFP transfected HeLa cells; type: cell-based; conditions: 100 nM
Excerpt: To investigate further the role of calcium in triptolide function Applicants utilized a system to buffer intracellular calcium levels. Various GFP-parvalbumin (PV) fusion proteins can be specifically localized to either the nucleus or the cytoplasm through a nuclear localization or exclusion signal (NLS or NES, respectively) (Pusl, et al., 2002, J Biol Chem 277, 27517-27527). Parvalbumin has two EF-hand calcium binding domains and can efficiently reduce the availability of free calcium in the cell (Pauls, et al., 1996, Biochim Biophys Acta 1306, 39-54). HeLa cells were transiently transfected with the GFP vector control, NES-PV-GFP, or NLS-PV-GFP in calcium containing media and efficient expression of each construct was determined by GFP localization (FIG. 4A). Normal cell growth was first assessed throughout 48 hours with each of the constructs. […] For triptolide experiments, cells were transfected and allowed to express the construct for 24 hours before the addition of 100 nM triptolide. After 24 and 48 hours of treatment, cells were assessed for viability. […]
All parvalbumin-GFP constructs and control vectors (Pusl, et al., 2002, J Biol Chem 277, 27517-27527) were a gift of Anton Bennett (Yale University). […] Cell viability was assessed at 24 and 48 hours post triptolide addition by morphology and trypan blue dye exclusion.

NFκB transactivation [1] = experiment: κB-luciferase reporter assay (TNF-α induced); type: cell-based
Method: Having established that triptolide induced cell death is dependent upon free calcium concentration, Applicants next determined if this was also a requirement for the inhibition of NFκB transcription. HeLa cells were transiently transfected with the κB-luciferase reporter construct for 8 hours before being washed and then cultured in the presence or absence of calcium containing medium for 16 hours. Triptolide (100 nM) was pre-incubated with cells for 1 hour before addition of 15 ng/ml of TNF-α for 4 hours.
As an additional experiment, transcriptional activity was also assessed by site-directed calcium buffering. HeLa cells were co-transfected with the κB-luciferase plasmid as well as one of the following constructs: GFP empty vector, NES-PV-GFP, or NLS-PV-GFP and proper GFP localization was confirmed. Cells were grown in the presence of calcium for 24 hours before the addition of 100 nM triptolide and 15 ng/ml TNF-α.
NFκB transactivation was examined using the κb-luciferase reporter construct. HeLa cells were transiently transfected and pre-treated with 0-100 nM triptolide for one hour prior to TNF-α addition. Cells were assessed for NFκB driven luciferase expression after an additional five hours of incubation, at which time TNF-α had induced transcriptional activity by approximately 15-fold in control cells. […] The results thus far support a divergence of triptolide-mediated functions: the pathway regulating growth arrest/death is more sensitive to triptolide and calcium than the mechanism leading to transcriptional repression of NFκB.
Based upon Applicants' studies examining the concentration dependent effect of triptolide on the two measured biological endpoints, cell death and transcriptional repression, Applicants wanted to determine how modulating triptolide's structure may also discriminate between the two pathways. For cell viability assays, HeLa cells were incubated with 0, 0.1, 1, or 10 μM of each analog or triptolide for 24 hours and then counted using trypan blue dye exclusion. […] NFκB transcriptional inhibition was measured using the κB-luciferase assay as previously described following 5 hours of incubation with each analog (0-10 μM) and TNF-α addition.
A triple κB promoter-Luciferase reporter construct was a gift of Sankar Ghosh (Yale University). HeLa cells were plated at a density of 2×10^5 in 12 well plates and transfected with 100 ng of the κB-Luciferase plasmid plus Lipofectamine 2000 (Invitrogen) for 24 hours before the addition of 100 nM triptolide for one hour and 15 ng/ml of recombinant (human) TNF-α (Roche) for an additional five hours. The transfection efficiency of HeLa was determined to be 80-90%, and all samples were normalized to protein concentration. Luciferase assays were performed using the Firefly luciferase kit as per manufacturer's protocol (Promega) and results obtained on the Wallac Victor2 1420 Multilabel Counter (Perkin Elmer).

[2] = tested on: Pkd1^−/− murine model of polycystic kidney disease; experiment: Pkd1^−/− murine model of polycystic kidney disease, treatment during gestation; type: in vivo, mice
Method: Following successful Pkd1^+/−/Pkd1^+/− matings, 0.07 mg/kg/day of triptolide or DMSO control was injected i.p. into pregnant mice until they gave birth. All pups were assessed for viability, length, developmental staging, and wet kidney weight. A total of 59 pups from DMSO treated females and 100 pups from triptolide treated females were examined for multiple parameters, such as genotypic distribution, developmental stage at time of birth, and average kidney weights (Table 1). […] Approximately 20% of all Pkd1^−/− mice were born alive from each treatment group. However, severe edematous abnormalities were obvious upon necropsy.
As per approved IACUC animal protocol, Pkd1^+/−/Pkd1^+/− mice were mated and pregnant mice were divided into control (DMSO) or experimental (triptolide) groups. A total volume of 100 μl of PBS with no more than 5% DMSO or DMSO/0.07 mg/kg/day triptolide was injected i.p. with a 28 G ½ insulin syringe. Mice were weighed and injected starting at E10.5 until birth. All pups were examined for length and developmental staging such as whisker formation. Kidneys were harvested, weighed, and fixed in 4% paraformaldehyde before histological preparation.
Kidneys were prepared by sagittal cross-sectioning and hematoxylin and eosin staining. All kidneys were photographed under the same magnification (4×) and cystic burden was computed using Image J analysis software (NIH). The area of cysts within the total area of the kidney (pixels) was calculated as a final percentage of cystic burden in the kidney. Immunohistochemical analysis of active caspase-3 was completed as per manufacturer's protocol.

NFκB transactivation [3] = experiment: κB-luciferase reporter assay (TNF-α induced); type: cell-based; conditions: 10 nM triptolide+TNF-α, after 24 hours
[4] = 0.07 mg/kg/day i.p. to pregnant mice, E10.5 until birth

Compound: CC(C)[C@]12O[C@H]1[C@@H]1O[C@]13[C@]1(O[C@H]1C[C@H]1C4=C(CC[C@@]13C)C(=O)OC4)[C@@H]2O [triptolide, Triptolide]
- cell death (HeLa cells; all transfection conditions, 48 hours): complete cell death
- cells rounded and no longer viable (HeLa cells; control GFP vector or NLS-PV-GFP, 24 hours): 50%
- TNF-α driven transcriptional activity of NFκB (NFκB transactivation [1]; 10 nM, 6 hours): did not inhibit
- TNF-α driven transcriptional activity of NFκB (NFκB transactivation [1]; 25 nM, 6 hours): did not inhibit
- suppression of NFκB transcriptional activity (NFκB transactivation [1]; 50 nM, 6 hours): 20%
- inhibition at 0.1 µM (NFκB transactivation [1]; 0.1 μM, 5 hours with TNF-α, analog study): > 60%
- inhibition of NFκB transcriptional activity (NFκB transactivation [1]; 100 nM, 6 hours, average): 60%
- NFκB transactivation (NFκB transactivation [1]; 100 nM, GFP vector, NES-PV-GFP or NLS-PV-GFP co-transfected): retained the ability to suppress NFκB transactivation in all experimental conditions
- TNF-α induced NFκB transactivation (NFκB transactivation [1]; 100 nM, presence and absence of calcium): effectively inhibited
- NFκB transcriptional activity at higher concentration (NFκB transactivation [1]; 1 or 10 μM, 5 hours): attenuated further
- Alive Pkd1^−/− (birth) (number) [2, 4]: 4
- Alive Pkd1^−/− (birth) (percent) [2, 4]: Approximately 20%
- Alive Pkd1^−/− (birth) (percent) ([2]; 0.07 mg/kg/day i.p. to pregnant mice, E10.5 until birth, listed as Triptolide): 22%
- diameter of cyst lumens on average ([2]; Pkd1^−/− kidneys): smaller
- active caspase-3 immunoreactivity in kidney sections ([2]; Pkd1^−/− kidneys, IHC): did not show any significant activation of the caspase pathway
- kidney morphology ([2]; mouse, in vivo): normal morphology
- luciferase activity induction (NFκB transactivation [3]): > 20 fold
